Source: patent publication US12331033B2, “Inhibitors of SARM1” (Disarm Therapeutics, Inc., priority 2020, dated 2025)

These molecules were tested against SARM1 (ARM-SAM-TIR) (Homo sapiens (Human), UniProt Q6SZW1) (assay: ARM-SAM-TIR SARM1 IC50 assay (NADase activity, NAD+ cleavage, RapidFire MS)). Conditions: ARM-SAM-TIR lysate 5 μg/mL, 2 h pre-incubation, 5 μM NAD+, 2 hr room temperature.
Type: biochemical
In short: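 Lysate of NRK1-HEK293T cells transfected with full-length ARM-SAM-TIR SARM1 (5 μg/mL final) pre-incubated with compound (1% DMSO) 2 h at room temperature in Dulbecco's PBS. Reaction started with 5 μM NAD+, run 2 hr at room temperature, then stopped with TCA/acetonitrile. NAD+ and ADPR quantified by RapidFire MS.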

SARM1 (ARM-SAM-TIR), sequence (Q6SZW1 other isoform, or with tags, fused parts or gaps): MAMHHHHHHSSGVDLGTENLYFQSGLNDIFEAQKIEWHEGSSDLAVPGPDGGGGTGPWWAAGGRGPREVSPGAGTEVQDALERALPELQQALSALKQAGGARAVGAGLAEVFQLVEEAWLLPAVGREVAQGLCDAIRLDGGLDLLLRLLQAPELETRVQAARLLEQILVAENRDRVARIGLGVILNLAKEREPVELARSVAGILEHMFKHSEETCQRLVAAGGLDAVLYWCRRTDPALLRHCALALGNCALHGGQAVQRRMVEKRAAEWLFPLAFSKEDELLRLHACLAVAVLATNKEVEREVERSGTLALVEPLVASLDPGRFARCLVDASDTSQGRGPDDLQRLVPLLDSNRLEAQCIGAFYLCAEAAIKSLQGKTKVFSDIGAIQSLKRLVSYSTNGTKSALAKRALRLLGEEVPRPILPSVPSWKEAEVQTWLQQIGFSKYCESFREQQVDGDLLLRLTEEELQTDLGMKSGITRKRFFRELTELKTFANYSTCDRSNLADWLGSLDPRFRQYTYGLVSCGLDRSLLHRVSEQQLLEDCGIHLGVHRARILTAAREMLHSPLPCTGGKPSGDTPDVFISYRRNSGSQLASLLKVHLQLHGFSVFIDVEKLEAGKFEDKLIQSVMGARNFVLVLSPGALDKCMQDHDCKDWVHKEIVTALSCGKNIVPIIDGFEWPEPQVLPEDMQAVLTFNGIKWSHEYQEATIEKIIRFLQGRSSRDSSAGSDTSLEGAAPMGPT

`CC1(c2c(-c3ccnnc3)n[nH]c2NC(=O)CCc2ccc(Cl)nc2)CC1` [Example 321] and `Cc1cnccc1-c1n[nH]c(NC(=O)CCc2ccc(Cl)nc2)c1C` [Example 322] cannot be ordered by IC50: < 5 µM for the first, < 5 µM for the second.

Compared with `Cc1c(-c2ccncc2)n[nH]c1NC(=O)C1Cc2ccccc2CO1` (centres unmarked) [Example 323], `N#Cc1c(-c2ccncc2F)n[nH]c1NC(=O)CCc1ccc(Cl)cc1` [Example 325] is lower in IC50: 5 to 15 µM for the first, < 5 µM for the second.

For `O=C(CCc1ccc(Cl)cc1)Nc1cc(-c2c(F)cncc2Br)n[nH]1` [Example 324], the IC50 was 5 to 15 µM.
